Experimental data from ChEMBL document CHEMBL4765408, “Design and synthesis of benzylidenecyclohexenones as TrxR inhibitors displaying high anticancer activity and inducing ROS, apoptosis, and autophagy” (Eur J Med Chem, 2020).
pIC50: −log10 of the molar value. Blank lines part the entries; values can stand above or below the compound they belong to. The source made the active and inactive calls. No cut-off for these calls is given here.

Legend:
[1] = tested on: MDA-MB-231; assay: Antiproliferative activity against human MDA-MB-231 cells after 72 hrs by sulforhodamine B assay; type: functional, cell-based; settings: MDA-MB-231, 72 h
[2] = tested on: MCF7; assay: Antiproliferative activity against human MCF7 cells after 72 hrs by sulforhodamine B assay; type: functional, cell-based; settings: MCF7, 72 h
[3] = tested on: A549; assay: Antiproliferative activity against human A549 cells after 72 hrs by sulforhodamine B assay; type: functional, cell-based; settings: A549, 72 h
[4] = tested on: KB; assay: Antiproliferative activity against human KB cells after 72 hrs by sulforhodamine B assay; type: functional, cell-based
[5] = Antiproliferative activity against human KB-VIN cells after 72 hrs by sulforhodamine B assay; type: functional, cell-based; settings: KBVIN
[6] = tested on: MDA-MB-231; assay: Induction of reactive oxygen species generation in human MDA-MB-231 cells measured after 24 hrs by DCFH-DA probe based flow cytometry; type: functional, cell-based
[7] = Inhibition of TrxR in human MDA-MB-231 cells measured after 72 hrs by colorimetric method; type: cell-based
[8] = Selectivity ratio of IC50 for human A549 cells to IC50 for human MDA-MB-231 cells; type: functional
[9] = tested on: MDA-MB-231; assay: Induction of apoptosis in human MDA-MB-231 cells at 0.6 uM measured after 72 hrs by APC-Annexin V/7-AAD staining based flow cytometry relative to control; type: functional
[10] = Acute toxicity in ICR mouse assessed as survival at 390.6 mg/kg, ip administered as single dose measured for 14 days; type: organism-based; settings: in vivo, time 14 day, read-out: Activity
[11] = Acute toxicity in ICR mouse assessed as death at 200 mg/kg, ip administered as single dose measured for 14 days; type: organism-based; settings: in vivo, 336 h, time 14 day
[12] = tested on: MDA-MB-231; assay: Down regulation of TrxR1 expression in human MDA-MB-231 cells measured after 72 hrs by Western blot analysis; type: functional, cell-based
[13] = tested on: MDA-MB-231; assay: Induction of apoptosis in human MDA-MB-231 cells assessed as reduction in Bcl-2 expression measured after 72 hrs by Western blot analysis; type: functional, cell-based
[14] = tested on: MDA-MB-231; assay: Induction of apoptosis in human MDA-MB-231 cells at 1.8 uM measured after 72 hrs by APC-Annexin V/7-AAD staining based flow cytometry relative to control; type: functional
[15] = tested on: MDA-MB-231; assay: Antitumor activity against human MDA-MB-231 cells xenografted in BALB/c nude mouse assessed as reduction in tumor volume at 10 to 25 mg/kg, ip measured at 2 days interval for 21 days; type: functional, organism-based; settings: dose 10-25 mg/kg, time 2.0 day
[16] = Acute toxicity in ip dosed ICR mouse administered as single dose measured for 14 days; type: organism-based; settings: in vivo, time 14 day
[17] = Acute toxicity in ICR mouse assessed as abnormality in eating at 200 mg/kg, ip administered as single dose measured for 14 days; type: organism-based; settings: in vivo, 336 h, time 14 day
[18] = tested on: MDA-MB-231; assay: Induction of autophagy in human MDA-MB-231 cells transfected with mRFP-eGFP-LC3 assessed as accumulation of autophagosomes by measuring increase in […] fluorescence measured after 24 hrs by confocal laser scanning microscopy; type: functional, cell-based
[19] = tested on: MDA-MB-231; assay: Induction of apoptosis in human MDA-MB-231 cells assessed as reduction in Bcl-XL expression measured after 72 hrs by Western blot analysis; type: functional, cell-based
[20] = tested on: MDA-MB-231; assay: Induction of autophagy in human MDA-MB-231 cells transfected with mRFP-eGFP-LC3 assessed as increase in LC3-II expression at 0.2 to 1.8 uM measured after 72 hrs by Western blot analysis; type: functional, cell-based; settings: dose 0.2-1.8 µM
[21] = tested on: MDA-MB-231; assay: Antitumor activity against human MDA-MB-231 cells xenografted in BALB/c nude mouse assessed as reduction in tumor weight at 25 mg/kg, ip measured at 2 days interval for 21 days relative to control; type: functional; set-up: scale not given: the % may be the effect or the level left; settings: time 2 day
[22] = tested on: MDA-MB-231; assay: Induction of apoptosis in human MDA-MB-231 cells assessed as activation of caspase-3 cleavage at 0.2 to 1.8 uM measured after 72 hrs by Western blot analysis; type: functional, cell-based; settings: dose 0.2-1.8 µM
[23] = species on record: Rattus norvegicus; assay: Inhibition of purified rat liver TrxR measured after 75 mins in presence of NADPH by DTNB based assay
[24] = Acute toxicity in ICR mouse assessed as survival at 488.3 mg/kg, ip administered as single dose measured for 14 days; type: organism-based; settings: in vivo, time 14 day, read-out: Activity
[25] = Acute toxicity in ICR mouse assessed as abnormality in drinking at 200 mg/kg, ip administered as single dose measured for 14 days; type: organism-based; settings: in vivo, 336 h, time 14 day
[26] = Acute toxicity in ICR mouse assessed as survival at 250 mg/kg, ip administered as single dose measured for 14 days; type: organism-based; settings: in vivo, time 14 day, read-out: Activity
[27] = tested on: MDA-MB-231; assay: Induction of autophagy in human MDA-MB-231 cells transfected with mRFP-eGFP-LC3 assessed as decrease in p62 expression at 0.2 to 1.8 uM measured after 72 hrs by Western blot analysis; type: functional, cell-based; settings: dose 0.2-1.8 µM
[28] = tested on: MDA-MB-231; assay: Induction of autophagy in human MDA-MB-231 cells transfected with mRFP-eGFP-LC3 assessed as decrease in LC3-I expression at 0.2 to 1.8 uM measured after 72 hrs by Western blot analysis; type: functional, cell-based; settings: dose 0.2-1.8 µM
[29] = Acute toxicity in ICR mouse assessed as change in body weight at 200 mg/kg, ip administered as single dose measured for 14 days; type: organism-based; settings: in vivo, 336 h, time 14 day
[30] = tested on: MDA-MB-231; assay: Induction of autophagy in human MDA-MB-231 cells transfected with mRFP-eGFP-LC3 assessed as accumulation of autolysosome by measuring increase in red fluorescence measured after 24 hrs by confocal laser scanning microscopy; type: functional, cell-based
[31] = Acute toxicity in ICR mouse assessed as survival at 312.5 mg/kg, ip administered as single dose measured for 14 days; type: organism-based; settings: in vivo, time 14 day, read-out: Activity
[32] = Acute toxicity in ICR mouse assessed as survival at 200 mg/kg, ip administered as single dose measured for 14 days; type: organism-based; settings: in vivo, time 14 day, read-out: Activity
[33] = tested on: MDA-MB-231; assay: Induction of apoptosis in human MDA-MB-231 cells at 0.2 uM measured after 72 hrs by APC-Annexin V/7-AAD staining based flow cytometry relative to control; type: functional

SMILES: COc1cc(/C=C2\CN(S(C)(=O)=O)C=CC2=O)cc(OC)c1OC
pIC50 [1]: 4.80
pIC50 [2]: 4.75
pIC50 [3]: 4.73

SMILES: COc1cc(/C=C2\CN(S(=O)(=O)c3ccc(C)cc3)C=CC2=O)cc(OC)c1OC
pIC50 [1]: 4.65
pIC50 [2]: 4.72
pIC50 [3]: 4.69

SMILES: O=C1C=CCC/C1=C\c1cnc2ccccc2c1
pIC50 [1]: 6.19
pIC50 [4]: 6.04
pIC50 [2]: 5.28
pIC50 [5]: 5.27
pIC50 [3]: 5.35

SMILES: COc1cc(/C=C2\CNC=CC2=O)cc(OC)c1OC
pIC50 [1]: < 4.60
pIC50 [2]: < 4.60
pIC50 [3]: < 4.60

SMILES: O=C1C=CCC/C1=C\c1cccnc1
pIC50 [1]: 5.98
pIC50 [4]: 5.82
pIC50 [2]: 5.69
pIC50 [5]: 5.55
pIC50 [3]: 5.82

SMILES: O=C1C=CCC/C1=C\c1cccc(OC(F)(F)F)c1
pIC50 [1]: 6.09

SMILES: O=C1C=CCC/C1=C\c1ccc2c(c1)OCO2
pIC50 [1]: 5.78
pIC50 [4]: 5.78
pIC50 [2]: 5.64
pIC50 [5]: 5.66
pIC50 [3]: 5.82

SMILES: O=C1C=CCC/C1=C\c1ccc(OC(F)(F)F)cc1
Activity [9]: 45.6%
survival at 336 h [10]: 30%
Activity [6]: Active
Activity [11]: Non-Toxic
Activity [12]: Dose-dependent effect
Activity [13]: Dose-dependent effect
Activity [14]: 56.8%
Activity [15]: Active
LD50 at 336 h [16]: 366 mg/kg
pIC50 [1]: 6.23
Activity [17]: Non-Toxic
Activity [18]: Dose-dependent effect
pIC50 [4]: 6.28
Activity [19]: Dose-dependent effect
Activity [20]: Active
pIC50 [2]: 5.98
Activity [21]: 63.3%
Activity [22]: Active
inhibition [23]: Active
pIC50 [7]: 6.92
pIC50 [5]: 6.08
survival at 336 h [24]: 10%
Activity [25]: Non-Toxic
survival at 336 h [26]: 90%
Activity [27]: Active
Activity [28]: Active
Activity [29]: Non-Toxic
Activity [30]: Dose-dependent effect
survival at 336 h [31]: 70%
pIC50 [3]: 6.36
survival at 336 h [32]: 100%
Activity [33]: 20.7%

The next lines start with results.

pIC50 [1]: 6.22
pIC50 [4]: 5.89
pIC50 [2]: 5.40
pIC50 [3]: 5.44
SMILES: CCOc1ccc(/C=C2\CCC=CC2=O)cc1OC
pIC50 [5]: 5.32

pIC50 [1]: 5.97
pIC50 [4]: 5.88
pIC50 [2]: 5.74
pIC50 [7]: 6.34
pIC50 [3]: 5.81
SMILES: COc1ccc(/C=C2\CCC=CC2=O)c(C)c1
Activity [6]: Active
pIC50 [5]: 5.80

pIC50 [1]: 6.22
pIC50 [4]: 5.44
pIC50 [2]: 5.34
pIC50 [3]: 5.32
SMILES: COc1cc(/C=C2\CCC=CC2=O)cc(OC)c1
pIC50 [5]: 5.31

pIC50 [1]: 6.21
pIC50 [4]: 5.41
pIC50 [2]: 5.33
pIC50 [3]: 5.29
SMILES: COc1cccc(/C=C2\CCC=CC2=O)c1OC
pIC50 [5]: 5.28
Ratio IC50 [8]: 8

pIC50 [1]: 5.79
pIC50 [4]: 5.82
pIC50 [2]: 5.44
pIC50 [3]: 5.79
SMILES: COc1cc(/C=C2\CCC=CC2=O)cc2ccccc12
pIC50 [5]: 5.58

pIC50 [1]: 6.23
pIC50 [4]: 5.87
pIC50 [2]: 5.77
pIC50 [7]: 6.20
pIC50 [3]: 5.83
SMILES: COc1ccc(/C=C2\CCC=CC2=O)cc1[N+](=O)[O-]
Activity [6]: Active
pIC50 [5]: 5.79
